Columns and labels:
LT-HSCs = system: LT-HSCs; design: method as in PMID 25692908; conditions: CDK inhibitor alone; cited from earlier work
[1] = system: human cord blood CD34+ cells (CD34+CD49f+ cells); assay: human cord blood CD34+ cell ex vivo culture and screen; type: cell-based; conditions: dose response, Fig. 4B
Procedure: Based on our study of murine HSCs, we further tested whether these p18SMIs could expand human cord blood CD34^+ cells in ex vivo culture. […] We cultured human cord blood CD34^+ cells for 7 days in HSCs expansion media in the presence of 200 nM of p18SMIs, and then analyzed the percentage and absolute number of CD34^+CD49f^+ cells by flow cytometry. We screened 40 p18SMIs, of which14 compounds could increase the number of CD34^+CD49f^+ cells compared with the control group (Fig. S6). […] Then we conducted a concentration gradient assay on top three p18SMIs with ED50 less than 10 nM (compounds 22, 40 and 41). […] Only in specific doses could they show their expansion effect on human HSCs (Fig. 4B).
Human cord blood samples were collected from consenting donors according to ethically approved procedures at Tianjin Central Hospital of Gynecology Obstetrics (Tianjin, China), under a protocol approved by the Ethical Committee on Medical Research at the Institute of Hematology. Human CD34^+ cord blood cells were isolated using human CD34 MicroBead Kit (MiltenyiBiotec) according to the manufacturer’s protocol after settling red cells with HES and red cells lysis with ACK Lysis Buffer.
Human CD34^+ cells were cultured in expansion medium consisting of StemSpan SFEM (StemCell Technologies) supplemented with 100 ng/mL human stem cell factor (SCF, PeproTech), 50 ng/mL human thrombopoietin (TPO, PeproTech), 100 ng/mL human FMS-like trysine kinase 3 ligand (Flt3L, PeproTech). Human CD34^+ cells were resuspended in expansion medium (5 × 10^4 cells/mL) before being aliquoted in 96-well plates (Costar, Corning Incorporated). Compounds, all with a final concentration of 200 nM, were dissolved in DMSO and added immediately in cell suspension after plating. The final concentration of DMSO in the control group was the same as in the compounds-treated group. Cells were cultured at 37 °C in 5% CO2. Based on the results of primary screening upon human cells and the results of ED50, we chose three compounds for further experiments. The expansion medium was changed to StemSpan SFEM (StemCell Technologies) supplemented with 100 ng/mL human stem cell factor (SCF, PeproTech), 100 ng/mL human thrombopoietin (TPO, PeproTech), 100 ng/mL human FMS-like trysine kinase 3 ligand (Flt3L, PeproTech) and 100 ng/mL human interleukin-6 (IL-6, PeproTech) for better expansion effect. The incubation condition was consistent with before.
Phenotypes analysis of cultured cells was performed on a BD FACS Array (Becton Dickinson Biosciences) using a combination of the following antibodies: APC anti-CD34 (BD Biosciences), PE anti-CD49f (BD Biosciences). Stained cells were washed once with PBS and then measured and analyzed on an FACS analyzer (FACSArray, BD Biosciences).

HSCs (CD34−LKS cells) = assay: single hematopoietic stem cell in vitro culture (nmEM colony) assay; type: cell-based, mouse; conditions: single CD34−LKS cell culture, 14 days, ratio of nmEM wells to DMSO control
Procedure: We biologically assessed the 22 putative p18SMI compounds for their ability to maintain HSCs stem cell characteristics, to be specific self-renewal and multi-lineage differentiation, using single cell cultures. […] Thus, we employed single HSC culture to assess p18SMI compounds’ effect upon HSCs. CD34^−LKS cells from C57BL/6 mice were individually deposited into a 96-well plate (one cell/well). The single cell was cultured for 14 days in 100 μL of serum-free medium (Gibco) containing 100 ng/mL of mouse stem cell factor (SCF), 10 ng/mL of mouse interleukin-3 (IL-3), 25 ng/mL of human thrombopoietin (TPO), 2 U/mL of human erythropoietin (EPO) and differing concentrations of the p18SMI compound. Cells were cultured 14 days for in vitro colony formation and colonies were then cytospined and analyzed by flow cytometry to test the subpopulation of cultured cells. Neutrophils (n), macrophages (m), erythroblasts (E) or megakaryocytes (M) were identified by the cell marker of Gr-1, Mac-1, Ter-119 and CD41 using flow cytometry. The wells from each group that generated all lineages (nmEM) were counted and the ratio to the control group (DMSO) was calculated.
Single CD34^-LKS cells from C57BL/6 mice were individually deposited into each well of a 96-well plate along with 100 μL of serum free medium (Gibco) containing 100 ng/mL of mouse SCF, 10 ng/mL of mouse IL-3, 25 ng/mL of human TPO, 2 U/mL of human EPO and p18SMI compounds (different dilutions). Cells were cultured in a 37 °C, 5% CO2 incubator for 14 days for ex vivo colony formation. Colonies were then cytospined and analyzed using flow cytometry. Neutrophils (n), macrophages (m), erythroblasts (E) or megakaryocytes (M) were identified based on their cell surface maker, Gr-1, Mac-1, Ter119 and CD41. Cells were measured on an FACS analyzer (FACSArray, BD Biosciences). […] The wells from each group that generated all lineages (nmEM) were counted. The ratio of p18SMI compound treatment group to the control group (DMSO-treated) was calculated and fitted to a curve to calculate the ED50 value using GraphPad Prism v6.0.

HSCs (bone marrow MNCs) = assay: cobblestone area forming cells (CAFC) assay with limiting dilution assay (LDA); type: cell-based, mouse; conditions: day 35
Procedure: We also investigated whether the increased number of phenotypic SLAM^+LT-HSCs in short-term culture assays was correlated with an increase in functional LT-HSCs. Cobblestone area forming cells (CAFC) assay combined with limiting-dilution assays (LDA) were performed to measure the frequency of HSCs[19][22][30]. Compared with the control group (HSC frequency is 1 in 112,559 of the original plated cells), the frequency of HSC at day 35 (indicating the activity of hematopoietic reconstitution capacity) was 2.7-fold and 3.0-fold higher in the cultures treated with XIE18–6 (HSC frequency is 1 in 42,490 of the original plated cells) and compound 40 (HSC frequency is 1 in 37,524 of the original plated cells) (p < 0.001, Fig. 3C), respectively.
Freshly isolated bone marrow MNCs from mice, 6–8 weeks old, were plated in a 24-well plate with 1 mL Dexter’s medium at a density of 2 × 10^6 cells per mL in the absence or presence of different doses of the tested compounds. The culture was maintained at 33 °C with 5% CO2. The number of cobblestone areas (CAs) was counted weekly. The medium was also replaced with half fresh medium on a weekly basis. For the limiting dilution analysis (LDA) of the test cells, different limiting doses were plated on the irradiated stromal cells in 96-well plates containing 200 μL of M5300 medium (StemCell Technologies) supplemented with 10^−6 M hydrocortisone. Each group was done with 20 replicates well. Small-molecule compounds were added to the co-culture system at different doses. Half of the medium in each well was replaced with fresh medium containing the test compounds weekly. The existence of CA in each well was evaluated under an inverted microscope at weekly intervals for 5 weeks. Based on the Poisson distribution of the negative wells, the frequency of long-term initiating cells was calculated with L-Calc software (StemCell Technologies).

[2] = system: LT-repopulating HSCs (CD34-LKS cells); assay: competitive bone marrow transplantation (cBMT) assay; type: in vivo, mouse
Procedure: Figure 3 Treatment of c-Kit-enriched murine BM cells with p18SMI compounds enhances HSC expansion. (A) The average number of total cells, HSPCs (Lin^−Sca1^+) and long term (LT)-HSCs (Lin^-Sca1^+CD48^−CD150^+) were analyzed by flow cytometry. (B) Single CD34^−LKS cell were deposited into each well of a 96-well plate, along with differentiation medium plus different concentrations of p18SMI compounds to show the dose-response effect of p18SMI compounds. (C) CAFC-LDA assay of cells treated with XIE18-6, compound 40 and DMSO to reveal the frequency of primitive HSCs. Above data (A–C) is mean ± SEM for all experiments of two or more and were performed in duplicate or triplicate. (D) Experimental design for transplantation (n = 10). CD34^-LKS cells were sorted into 96-well plates at 50 cells/well and cultured for 3 days with cytokine plus 20 μM of compounds or DMSO. Cells from each well were mixed with 2 × 10^6 freshly isolated bone marrow MNCs and co-transplanted by tail-vein injection into lethally irradiated CD45.2 recipient mice. 16 weeks after transplantation, bone marrow MNCs were stained to determine the engraftment level of donor cells. Bone marrow MNCs were also stained for lineage analysis. Multi-lineage differentiation was examined by flow cytometry. GM, T and B indicate lineages for myeloid, T and B cells, respectively. (E,F) The engraftment levels at 16 weeks after primary transplantation, and multi-lineage differentiation profile. Data is mean ± SEM for all experiments (***p < 0.001, **p < 0.01). TEXT PRINTED IN THE PICTURE: (E) #40: Engrafment%: *** 5.93X | (E) XIE18-6: Engrafment%: ** 3.01X DOUBTS OF THE COPYIST ABOUT THIS PICTURE: Panel E: 5.93X and 3.01X are printed on brackets running from #40 and from XIE18-6 to DMSO. No measure is printed beside them, so the axis label 'Engrafment%' was used as the measure.
The increased frequency and total number of functional LT-HSCs after treatment with p18SMI compounds was further confirmed by competitive bone marrow transplantation (cBMT) assay (Fig. 3D). CD34^-LKS cells were first sorted and cultured w/o p18SMI compound for 3 days. Then the cultured cells were gathered and co-transplanted into lethally irradiated mice with competitor cells. […] Moreover, the engraftment of the group treated with compound 40 was double of that of the group treated with XIE18–6.

Compound | maintenance of HSCs population (LT-HSCs) | expansion of human HSCs in concentration gradient assay [1] | ED50 (activity to promote the expansion of HSCs) (HSCs (CD34−LKS cells)) [nM] | further results
CC(C)(C)c1cnc(CSc2cnc(NC(=O)C3CCNCC3)s2)o1 [SNS032] | could not maintain HSCs population |  |  | 
COC(=O)[C@H](NS(=O)(=O)c1ccc(NC(C)=O)cc1)c1ccccc1 [Compound 22] |  | concentration related |  | 
CC(=O)Nc1ccc(S(=O)(=O)Oc2ccc3c(C)cc(=O)oc3c2)cc1 [XIE18-6] |  |  | 105.5 | HSC frequency (1 in x of the original plated cells) (HSCs (bone marrow MNCs)): 42,490; frequency of HSC, fold higher than control group (HSCs (bone marrow MNCs)): 2.7 fold; multi-lineage differentiation profile (GM, T, B) compared with the control group ([2]; 16 weeks after transplantation): did not cause predominant growth of any specific lineages; increase in engraftment compared with the DMSO control group ([2]; CD34-LKS cells cultured 3 days with 20 μM compound, co-transplanted with competitor cells into lethally irradiated mice, bone marrow 16 weeks after transplantation): 3.01 fold; increase in engraftment compared with the uncultured group ([2]; cells cultured 3 days with 20 μM compound, 16 weeks after transplantation): 2.20 fold
CC(=O)c1c(C)c2cnc(Nc3ccc(N4CCNCC4)cn3)nc2n(C2CCCC2)c1=O [PD0332991] | could not maintain HSCs population |  |  | 
O=C(O)c1ccc(S(=O)(=O)NC2CCCCC2)cc1 [Compound 39, 4-(N-cyclohexylsulfamoyl)benzoic acid] |  |  | 120 | 
CC(=O)Nc1ccc(C(=O)Oc2ccc3c(C(C)C)cc(=O)oc3c2)cc1 [Compound 41, 4-Isopropyl-2-oxo-2H-chromen-7-yl 4-acetamidobenzoate] |  | concentration related |  | 
